Columns and labels:
[1] = system: ECHCG (Echinochloa crus-galli); assay: Postemergence herbicidal evaluation; assay type: in vivo, (L.) Beau
Summary of the method: (§1)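 Seedlings grown for about two weeks were sprayed postemergence and then kept under standard greenhouse care. Injury was rated visually 4–5 weeks after treatment on a 0–9 scale against untreated controls, and ratings from repeat tests were averaged.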

SETVI (Setaria viridis) = assay: Postemergence herbicidal evaluation; assay type: in vivo, (L.) Beau
Summary of the method: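 Seedlings grown about two weeks were sprayed with compound in 50/50 acetone/water containing 0.5% TWEEN 20, at about 0.0040 to 1.000 kg/ha via nozzle at 40 psi. Plants were kept under greenhouse conditions and visually rated on a 0-9 scale versus control four to five weeks after treatment; replicate tests averaged.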

[2] = system: TRZAWR (Wheat, Winter, cv Riband); assay: Postemergence herbicidal evaluation; assay type: in vivo, Triticum aestivum
Summary of the method: as §1

[3] = system: ABUTH (Abutilon theophrasti); assay: Preemergence herbicidal evaluation; assay type: in vivo, Medic.; conditions: preemergence, rated 4-5 weeks after treatment
[4] = system: AMBEL (Ambrosia artemisifolia); assay: Preemergence herbicidal evaluation; assay type: in vivo, L.; conditions: preemergence, rated 4-5 weeks after treatment
Summary of the method: (§2)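 Test compound is applied in aqueous acetone to cups just after seeding. Cups are watered and maintained on greenhouse benches. Each cup is scored 0–9 by eye relative to a control after four to five weeks.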

[5] = system: CASOB (Cassia obtusifolia); assay: Preemergence herbicidal evaluation; assay type: in vivo, L.; conditions: preemergence, rated 4-5 weeks after treatment
Summary of the method: as §2

[6] = system: CHEAL (Chenopodium album); assay: Preemergence herbicidal evaluation; assay type: in vivo, L.; conditions: preemergence, rated 4-5 weeks after treatment
Summary of the method: as §2

[7] = system: IPOHE (Ipomoea hederacea); assay: Preemergence herbicidal evaluation; assay type: in vivo, (L.) Jacq.; conditions: preemergence, rated 4-5 weeks after treatment
[8] = system: GLXMAW (Soybean, Williams); assay: Preemergence herbicidal evaluation; assay type: in vivo, Glycine max, (L.) Merr. cv Williams; conditions: preemergence, rated 4-5 weeks after treatment
ZEAMX (Corn, Field) = assay: Preemergence herbicidal evaluation; assay type: in vivo, Zea mays, L.; conditions: preemergence, rated 4-5 weeks after treatment
[9] = system: ECHORC (Echinochloa oryzoides); assay: Flooded paddy, preemergence weed control; assay type: in vivo, Echinochloa oryzoides (Ard.) Fritsch.; conditions: rated 3-4 weeks after treatment, 0-9 rating scale
Summary of the method: (§3)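 Silt loam, sowing depth ≤0.5 cm; permanent flood 1.5–3 cm above soil; greenhouse culture after treatment. Readout: 0-9 visual scale (stand, vigor, malformation, size, chlorosis, appearance) vs control.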

CYPIR (Cyperus iria) = assay: Flooded paddy, preemergence weed control; assay type: in vivo; conditions: rated 3-4 weeks after treatment, 0-9 rating scale
Summary of the method: as §3

[10] = system: CYPSE (Cyperus serotinus); assay: Flooded paddy, preemergence weed control; assay type: in vivo, Rottb.; conditions: rated 3-4 weeks after treatment, 0-9 rating scale
Summary of the method: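 Herbicidal effect was scored visually on a 0–9 scale against an untreated control 3–4 weeks after treatment. Compounds were applied preemergence as 50/50 v/v aqueous/acetone mixtures into flood water (1.5–3 cm deep over silt loam), at roughly 0.0080 to 0.1250 kg/ha active ingredient.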

[11] = system: MOOVA (Monochoria vaginalis); assay: Flooded paddy, preemergence weed control; assay type: in vivo, Presl.; conditions: rated 3-4 weeks after treatment, 0-9 rating scale
Summary of the method: as §3

[12] = system: SAGPY (Sagittaria pygmaea); assay: Flooded paddy, preemergence weed control; assay type: in vivo, L.; conditions: rated 3-4 weeks after treatment, 0-9 rating scale
Summary of the method: as §3

ORYSAT (Rice, Tebonnet) = assay: Flooded paddy, post-transplant rice tolerance; assay type: in vivo, Oryza sativa, (L.) Tebonnet; conditions: flooded paddy, post-transplant rice, rated 3-4 weeks after treatment, 0-9 rating scale
Summary of the method: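 Seedlings aged ten days are transplanted in pairs into undrained pots of silt loam, which are then flooded to a depth of 1.5 to 3 cm. After herbicide application the pots are kept in a greenhouse with the flood maintained. Plants are rated 0-9 by visual comparison with controls.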

Cn1c(C(F)(F)F)cc(=O)n(-c2ccc3snc(C4OCCCO4)c3c2)c1=O [Compound 28, 3-(3-m-dioxan-2-yl-1,2-benzisothiazol-5-yl)-1-methyl-6-(trifluoromethyl)uracil]
8.3: Postemergence herbicidal rating, SETVI (SETVI (Setaria viridis); rate 0.0320 kg/ha)
8.5: Postemergence herbicidal rating, ECHCG ([1]; rate 0.0620 kg/ha) | Postemergence herbicidal rating, SETVI (SETVI (Setaria viridis); rate 0.0620 kg/ha) | herbicidal rating, ECHORC ([9]; rate 0.0320 kg/ha)
6.5: Postemergence herbicidal rating, TRZAWR ([2]; rate 0.0620 kg/ha)
9.0: ABUTH preemergence herbicidal rating ([3]; Rate 0.0620 kg/ha) | ABUTH preemergence herbicidal rating ([3]; Rate 0.1250 kg/ha) | ABUTH preemergence herbicidal rating ([3]; Rate 0.2500 kg/ha) | AMBEL preemergence herbicidal rating ([4]; Rate 0.0620 kg/ha) | AMBEL preemergence herbicidal rating ([4]; Rate 0.1250 kg/ha) | AMBEL preemergence herbicidal rating ([4]; Rate 0.2500 kg/ha) | CASOB preemergence herbicidal rating ([5]; Rate 0.0620 kg/ha) | CASOB preemergence herbicidal rating ([5]; Rate 0.1250 kg/ha) | CASOB preemergence herbicidal rating ([5]; Rate 0.2500 kg/ha) | CHEAL preemergence herbicidal rating ([6]; Rate 0.0620 kg/ha) | CHEAL preemergence herbicidal rating ([6]; Rate 0.1250 kg/ha) | CHEAL preemergence herbicidal rating ([6]; Rate 0.2500 kg/ha) | IPOHE preemergence herbicidal rating ([7]; Rate 0.0620 kg/ha) | IPOHE preemergence herbicidal rating ([7]; Rate 0.1250 kg/ha) | IPOHE preemergence herbicidal rating ([7]; Rate 0.2500 kg/ha) | GLXMAW preemergence herbicidal rating ([8]; Rate 0.1250 kg/ha) | GLXMAW preemergence herbicidal rating ([8]; Rate 0.2500 kg/ha) | ZEAMX preemergence herbicidal rating (ZEAMX (Corn, Field); Rate 0.1250 kg/ha) | ZEAMX preemergence herbicidal rating (ZEAMX (Corn, Field); Rate 0.2500 kg/ha) | herbicidal rating, ECHORC ([9]; rate 0.1250 kg/ha) | herbicidal rating, CYPIR (CYPIR (Cyperus iria); rate 0.0320 kg/ha) | herbicidal rating, CYPIR (CYPIR (Cyperus iria); rate 0.1250 kg/ha) | herbicidal rating, CYPSE ([10]; rate 0.0320 kg/ha) | herbicidal rating, CYPSE ([10]; rate 0.1250 kg/ha) | herbicidal rating, MOOVA ([11]; rate 0.0080 kg/ha) | herbicidal rating, MOOVA ([11]; rate 0.0320 kg/ha) | herbicidal rating, MOOVA ([11]; rate 0.1250 kg/ha) | herbicidal rating, SAGPY ([12]; rate 0.1250 kg/ha) | herbicidal rating, ORYSAT (rice tolerance) (ORYSAT (Rice, Tebonnet); rate 0.0320 kg/ha) | herbicidal rating, ORYSAT (rice tolerance) (ORYSAT (Rice, Tebonnet); rate 0.1250 kg/ha)
8.0: GLXMAW preemergence herbicidal rating ([8]; Rate 0.0620 kg/ha) | ZEAMX preemergence herbicidal rating (ZEAMX (Corn, Field); Rate 0.0620 kg/ha) | herbicidal rating, CYPIR (CYPIR (Cyperus iria); rate 0.0080 kg/ha) | herbicidal rating, SAGPY ([12]; rate 0.0320 kg/ha)
5.0: Postemergence herbicidal rating, TRZAWR ([2]; rate 0.0320 kg/ha) | herbicidal rating, ECHORC ([9]; rate 0.0080 kg/ha)
7.0: herbicidal rating, ORYSAT (rice tolerance) (ORYSAT (Rice, Tebonnet); rate 0.0080 kg/ha)
0.0: herbicidal rating, SAGPY ([12]; rate 0.0080 kg/ha)
4.3: Postemergence herbicidal rating, ECHCG ([1]; rate 0.0320 kg/ha)

CC(=O)N1CCSC1c1nsc2ccc(-n3c(=O)cc(C(F)(F)F)n(C)c3=O)cc12 (stereo not shown) [Compound 29, 3-acetyl-2-[5-[3,6-dihydro-3-methyl-2,6-dioxo-4-(trifluoromethyl)-1(2H)-pyrimidinyl]-1,2-benzisothiazol-3-yl]thiazolidine]
8.0: ABUTH preemergence herbicidal rating ([3]; Rate 0.0620 kg/ha) | AMBEL preemergence herbicidal rating ([4]; Rate 0.1250 kg/ha) | CASOB preemergence herbicidal rating ([5]; Rate 0.2500 kg/ha)
4.5: Postemergence herbicidal rating, TRZAWR ([2]; rate 0.0320 kg/ha) | Postemergence herbicidal rating, TRZAWR ([2]; rate 0.0620 kg/ha)
5.0: Postemergence herbicidal rating, SETVI (SETVI (Setaria viridis); rate 0.0620 kg/ha) | IPOHE preemergence herbicidal rating ([7]; Rate 0.0620 kg/ha)
6.0: herbicidal rating, CYPSE ([10]; rate 0.1250 kg/ha)
7.0: AMBEL preemergence herbicidal rating ([4]; Rate 0.0620 kg/ha) | GLXMAW preemergence herbicidal rating ([8]; Rate 0.1250 kg/ha) | ZEAMX preemergence herbicidal rating (ZEAMX (Corn, Field); Rate 0.1250 kg/ha) | ZEAMX preemergence herbicidal rating (ZEAMX (Corn, Field); Rate 0.2500 kg/ha) | herbicidal rating, ECHORC ([9]; rate 0.0320 kg/ha) | herbicidal rating, CYPIR (CYPIR (Cyperus iria); rate 0.0320 kg/ha) | herbicidal rating, ORYSAT (rice tolerance) (ORYSAT (Rice, Tebonnet); rate 0.1250 kg/ha)
5.5: ZEAMX preemergence herbicidal rating (ZEAMX (Corn, Field); Rate 0.0620 kg/ha)
7.5: IPOHE preemergence herbicidal rating ([7]; Rate 0.1250 kg/ha)
6.5: CASOB preemergence herbicidal rating ([5]; Rate 0.1250 kg/ha) | GLXMAW preemergence herbicidal rating ([8]; Rate 0.0620 kg/ha)
2.0: Postemergence herbicidal rating, ECHCG ([1]; rate 0.0620 kg/ha)
3.5: CASOB preemergence herbicidal rating ([5]; Rate 0.0620 kg/ha) | herbicidal rating, SAGPY ([12]; rate 0.0320 kg/ha) | herbicidal rating, ORYSAT (rice tolerance) (ORYSAT (Rice, Tebonnet); rate 0.0320 kg/ha)
0.0: Postemergence herbicidal rating, ECHCG ([1]; rate 0.0320 kg/ha) | Postemergence herbicidal rating, SETVI (SETVI (Setaria viridis); rate 0.0320 kg/ha) | herbicidal rating, ECHORC ([9]; rate 0.0080 kg/ha) | herbicidal rating, CYPIR (CYPIR (Cyperus iria); rate 0.0080 kg/ha) | herbicidal rating, CYPSE ([10]; rate 0.0320 kg/ha) | herbicidal rating, MOOVA ([11]; rate 0.0080 kg/ha) | herbicidal rating, SAGPY ([12]; rate 0.0080 kg/ha) | herbicidal rating, ORYSAT (rice tolerance) (ORYSAT (Rice, Tebonnet); rate 0.0080 kg/ha)
9.0: ABUTH preemergence herbicidal rating ([3]; Rate 0.1250 kg/ha) | ABUTH preemergence herbicidal rating ([3]; Rate 0.2500 kg/ha) | AMBEL preemergence herbicidal rating ([4]; Rate 0.2500 kg/ha) | CHEAL preemergence herbicidal rating ([6]; Rate 0.0620 kg/ha) | CHEAL preemergence herbicidal rating ([6]; Rate 0.1250 kg/ha) | CHEAL preemergence herbicidal rating ([6]; Rate 0.2500 kg/ha) | IPOHE preemergence herbicidal rating ([7]; Rate 0.2500 kg/ha) | GLXMAW preemergence herbicidal rating ([8]; Rate 0.2500 kg/ha) | herbicidal rating, ECHORC ([9]; rate 0.1250 kg/ha) | herbicidal rating, CYPIR (CYPIR (Cyperus iria); rate 0.1250 kg/ha) | herbicidal rating, MOOVA ([11]; rate 0.0320 kg/ha) | herbicidal rating, MOOVA ([11]; rate 0.1250 kg/ha) | herbicidal rating, SAGPY ([12]; rate 0.1250 kg/ha)
